Structures are written as SMILES.

For one test, the target named is T1, Aldo-keto reductase family 1 member B1 (Homo sapiens, UniProt P15121). The test can be described thus: Inhibition of recombinant human ALR2 at 10.5 mM using D,L-glyceraldehyde and NADPH as substrate preincubated for 3 mins followed by substrate addition and measured for 3 mins by spectrophotometric analysis relative to control. The note with it: time 6.0 min.
One may read the inhibition as the change of the read-out against control, counted positive when it falls. As to `Nc1nc2nc(C(=O)NCC(=O)N[C@@H](Cc3ccccc3)C(=O)O)cnc2c(=O)[nH]1`, the inhibition was 9%.

A further test addresses T1, Aldo-keto reductase family 1 member B1. The test can be described thus: Inhibition of recombinant human ALR2 using D,L-glyceraldehyde and NADPH as substrate preincubated for 3 mins followed by substrate addition and measured for 3 mins by spectrophotometric analysis.
Details: not given
Broadly, the IC50 is the concentration needed to halve the response being measured. As for `Nc1nc2ncc(C(=O)O)nc2c(=O)[nH]1` [PTERIN-6-CARBOXYLIC ACID], the IC50 result is given as “Nd(Insoluble)”.

The test is the same for the next values; noted with them: read-out: IC50.
`Nc1nc2nc(C(=O)N[C@@H](Cc3ccccc3)C(=O)O)cnc2c(=O)[nH]1`: the IC50 was 46 µM.

On to `CC(C)[C@@H](NC(=O)c1cnc2c(=O)[nH]c(N)nc2n1)C(=O)O`, for which the IC50 is 194 µM.

Turning to `Nc1nc2nc(C(=O)N[C@H](Cc3ccccc3)C(=O)O)cnc2c(=O)[nH]1`, the IC50 was found to be 68.1 µM.

On to `Nc1nc2nc(C(=O)N[C@@H](CCc3ccccc3)C(=O)O)cnc2c(=O)[nH]1`, for which the IC50 is 25.1 µM.

Turning to `Nc1nc2nc(C(=O)N[C@@H](Cc3ccc(O)cc3)C(=O)O)cnc2c(=O)[nH]1`, the IC50 amounted to 216 µM.

As for `Nc1nc2nc(C(=O)NCC(=O)O)cnc2c(=O)[nH]1`, the IC50 was 1.97 µM.

Take `C[C@H](NC(=O)c1cnc2c(=O)[nH]c(N)nc2n1)C(=O)O`: the IC50 was 12.4 µM.

On to `C[C@@H](NC(=O)c1cnc2c(=O)[nH]c(N)nc2n1)C(=O)O`, for which the IC50 amounted to 72 µM.

As for `CC(C)C[C@@H](NC(=O)c1cnc2c(=O)[nH]c(N)nc2n1)C(=O)O`, the IC50 turned out to be 97.2 µM.

Regarding `CC[C@H](C)[C@H](NC(=O)c1cnc2c(=O)[nH]c(N)nc2n1)C(=O)O`, the IC50 was found to be 69 µM.

With `Nc1nc2nc(C(=O)NCCCC(=O)O)cnc2c(=O)[nH]1`, the IC50 is 25.5 µM.

Take `Nc1nc2nc(C(=O)N[C@H](CCc3ccccc3)C(=O)O)cnc2c(=O)[nH]1`: the IC50 was 42.1 µM.

As to `Nc1nc2nc(C(=O)NCCC(=O)O)cnc2c(=O)[nH]1`, the IC50 is 17.5 µM.

Take `Nc1nc2nc(C(=O)N[C@H](C(=O)O)c3ccccc3)cnc2c(=O)[nH]1`: the IC50 was 42.6 µM.

Consider `CC[C@@H](C)[C@@H](NC(=O)c1cnc2c(=O)[nH]c(N)nc2n1)C(=O)O`, for which the IC50 stood at 278 µM.

As for `Nc1nc2nc(C(=O)N[C@H](CO)C(=O)O)cnc2c(=O)[nH]1`, the IC50 is 130 µM.

Consider `Nc1nc2nc(C(=O)N[C@H](Cc3ccc(O)cc3)C(=O)O)cnc2c(=O)[nH]1`, for which the IC50 came to 580 µM.

For the compound `Nc1nc2ncc(CNc3ccc(C(=O)N[C@@H](CCC(=O)O)C(=O)O)cc3)nc2c(=O)[nH]1` [FOLIC ACID], the IC50 was found to be 52.5 µM.

On to `Nc1nc2nc(C(=O)N[C@@H](CO)C(=O)O)cnc2c(=O)[nH]1`, for which the IC50 was found to be 29.2 µM.

In the case of `Nc1nc2nc(C(=O)O)cnc2c(=O)[nH]1`, the IC50 worked out at 26.5 µM.

Take `Nc1nc2nc(C(=O)N[C@@H](C(=O)O)c3ccccc3)cnc2c(=O)[nH]1`: the IC50 was found to be 56.6 µM.

`CC(C)[C@H](NC(=O)c1cnc2c(=O)[nH]c(N)nc2n1)C(=O)O`: the IC50 stood at 83.4 µM.

As for `Nc1nc2nc(C(=O)NCCCCCC(=O)O)cnc2c(=O)[nH]1`, the IC50 was 4.02 µM.

On to `CC(C)C[C@H](NC(=O)c1cnc2c(=O)[nH]c(N)nc2n1)C(=O)O`, for which the IC50 is 61.7 µM.

As for `Nc1nc2nc(C(=O)NCCCCC(=O)O)cnc2c(=O)[nH]1`, the IC50 turned out to be 11.7 µM.

For the origin of these results see ChEMBL document CHEMBL4715767, “Pterin-7-carboxamides as a new class of aldose reductase inhibitors” (Bioorg Med Chem Lett, 2016).
